According to patent publication US20230263822A1, “MODULATION OF FACTOR 11 EXPRESSION” (Ionis Pharmaceuticals, Inc., priority 2008, published 2023):

Tests used:
[1] = tested on: Factor 11 mRNA; assay: Factor 11 mRNA in liver, FeCl3 induced venous thrombosis model vs Apixaban (Example 14); format: in vivo, BALB/c mice; settings: for % inhibition of Factor 11 mRNA in liver relative to PBS control: FeCl3 VT model
Procedure: ISIS 404071 and Apixaban were evaluated in the FeCl3 induced VT mouse model. […] Two days after receiving the last dose of ISIS 404071, mice were anesthetized with 150 mg/kg ketamine mixed with 10 mg/kg xylazine administered by intraperitoneal injection. […] Twenty minutes after receiving Apixaban, mice were anesthetized with 150 mg/kg ketamine mixed with 10 mg/kg xylazine administered by intraperitoneal injection. […] Two days after the last dose of PBS, mice in both groups were anesthetized with 150 mg/kg ketamine mixed with 10 mg/kg xylazine administered by intraperitoneal injection. Thrombus formation was induced with FeCl3 in all of the mice except the first control group.
In mice undergoing FeCl3 treatment, thrombus formation was induced by applying a piece of filter paper (2×4 mm) pre-saturated with 10% FeCl3 solution directly on the vena cava. After 3 minutes of exposure, the filter paper was removed. Thirty minutes after the filter paper application, a fixed length of the vein containing the thrombus was dissected out for platelet analysis. Liver was collected for RNA analysis.
RNA was extracted from liver tissue for real-time PCR analysis of Factor 11. Results are presented as percent inhibition of Factor 11, relative to PBS control.

[2] = tested on: blood coagulation; assay: Time course of aPTT after one dose (Example 29); format: in vivo, BALB/c mice; settings: for aPTT INR: values approximate
Procedure: One dose of 50 mg/kg ISIS 404071 was administered subcutaneously to BALB/c mice. Following ISIS 404071 administration, mice were sacrificed at 12 hours, 1 day, 2 days, 3 days, 4 days, 7 days, 14 days, 28 days, and 56 days. Whole liver was collected for RNA analysis and PPP was collected for aPTT analysis. A control group of mice was treated with one subcutaneous dose of PBS.
aPTT values provided in Table 43 are reported as International Normalized Ratio (INR) values. INR values for aPTT were determined by dividing the aPTT value for ISIS 404071 treated mice by the aPTT for the PBS treated group. This ratio was then raised to the power of the International Sensitivity Index (ISI) of the tissue factor used.

ISIS 404071: antisense oligonucleotide targeted to murine Factor 11 mRNA, TGGTAATCCACTTTCAGAGG, target start site 869 (chemistry not given here)
Factor 11 mRNA in liver vs PBS control ([1]; FeCl3 induced VT model, ISIS 404071 1.25-40 mg/kg, Apixaban 0.5-5 mg/kg s.c. once): significant dose-dependent reduction of Factor 11 mRNA
% inhibition of Factor 11 mRNA in liver relative to PBS control ([1]; ISIS 404071 1.25 mg/kg subcutaneously twice a week for 3 weeks): 15%
% inhibition of Factor 11 mRNA in liver relative to PBS control ([1]; ISIS 404071 5 mg/kg subcutaneously twice a week for 3 weeks): 63%
% inhibition of Factor 11 mRNA in liver relative to PBS control ([1]; ISIS 404071 10 mg/kg subcutaneously twice a week for 3 weeks): 76%
% inhibition of Factor 11 mRNA in liver relative to PBS control ([1]; ISIS 404071 25 mg/kg subcutaneously twice a week for 3 weeks): 91%
% inhibition of Factor 11 mRNA in liver relative to PBS control ([1]; ISIS 404071 50 mg/kg subcutaneously twice a week for 3 weeks): 95%
aPTT over time ([2]; BALB/c mice, one s.c. dose of 50 mg/kg): progressive decrease of aPTT until day 4 and then progressive increase to pre-treatment levels from day 7 to day 28
aPTT INR ([2]; day 1 after one dose of 50 mg/kg s.c.): ~1.02 INR
aPTT INR ([2]; day 2 after one dose of 50 mg/kg s.c.): ~1.12 INR
aPTT INR ([2]; day 3 after one dose of 50 mg/kg s.c.): ~1.29 INR
aPTT INR ([2]; day 4 after one dose of 50 mg/kg s.c.): ~1.30 INR
aPTT INR ([2]; day 7 after one dose of 50 mg/kg s.c.): ~1.25 INR
aPTT INR ([2]; day 14 after one dose of 50 mg/kg s.c.): ~1.11 INR
aPTT INR ([2]; day 28 after one dose of 50 mg/kg s.c.): ~1.02 INR
